# Source: patent publication US20110217740A1, “METHODS, MICROORGANISMS, AND COMPOSITIONS FOR PLANT BIOMASS PROCESSING” (University of Georgia Research, priority 2008, published 2011)
# Test system: A. thermophilum
# Test: Sensitivity of A. thermophilum to selective agents
# Type: cell-based, Anaerocellum thermophilum
# Settings: selective agent in growth medium
# Method: 5× Base Salts: 140.00 g/L NaCl, 17.50 g/L, MgSO4.7H2O, 13.50 g/L MgCl2.6H2O, 1.65 g/L KCl, 1.25 g/L NH4Cl, 0.70 g/L CaCl2.2H2O. Liquid complex cellobiose (CC) media (pH 6.8): 200 mL/L 5× Base salts, 1 mL/L 1000× Trace minerals, 100 μL/L 100 mM Na2WO4*2H2O, 50 μL/L Resazurin (5 mg/mL), 5 mL/L 10% w/v Yeast Extract, 50 mL/L 10% w/v Casein hydrolysate, 35 mL/L 10% w/v Cellobiose, 0.5 g/L Cysteine, 0.5g Na2S, 1 g/L NaHCO3, 1 mL/L 1M K2HPO4 buffer. Solid complex cellobiose (CC) media: 1× media +1% phytagel solution (Sigma Chemical Company, St. Louis, Mo.). CC plates containing 5-fluoroorotic acid (5-FOA): to ensure complete 5-FOA solvation, 1M NaOH is dripped into the solution until a murky consistency is reached at around pH 10, cysteine is then used to lower the pH to 7, where the solution turns transparent. Simvastatin plates: solid complex cellobiose plates with the indicated amount of simvastatin added. A. thermophilum is sensitive to 8 millimolar (mM) 5-FOA, 30 mM hygromycin, 8 micromolar (μM) simvastatin, and 50 μM apramycin.
row,SMILES,concentration to which A. thermophilum is sensitive [µM]
1,"O=C(O)c1[nH]c(=O)[nH]c(=O)c1F [5-FOA, 5-fluoroorotic acid]",8000
2,CN[C@@H]1[C@@H](O[C@H]2O[C@H](CO)[C@@H](N)[C@H](O)[C@H]2O)OC2C[C@@H](N)[C@@H](O[C@H]3[C@H](O)[C@@H](O)[C@H](N)C[C@@H]3N)OC2[C@@H]1O (stereo partly drawn) [apramycin],50
3,CCC(C)(C)C(=O)O[C@H]1C[C@@H](C)C=C2C=C[C@H](C)[C@H](CC[C@@H]3C[C@@H](O)CC(=O)O3)[C@H]21 [simvastatin],8
